Source: patent US10780139B1, “Hypericum revolutum extract as a vasodilator” (King Abdulaziz University, priority 2020, dated 2020)

How the values were obtained:
[1] = tested on: PE pre-contracted isolated aorta; assay: vasodilating activity, isolated artery technique (PE-precontracted isolated aorta); parameters: species or system Wistar rats; settings: for vasodilation of PE precontracted isolated aortae: isolated compounds 1-10 μM cumulative, vs time control, p<0.05, FIG. 7-8
Description: Male Wistar rats 6-8 weeks old (180-200 g) (King Fahd Medical Research Center, King Abdulaziz University, Jeddah, Saudi Arabia) were used in this study. Clear polypropylene cages containing 4 rats each were used to house the animals and provided access to purified water and standard rodent pellets. The animal housing conditions applied were constant involving alternating 12 hours light and dark, a temperature of 22±3° C., a relative humidity of 50-60%, and adequate ventilation. Experimental protocol was approved by the Research Ethical Committee, Faculty of Pharmacy, King Abdulaziz University, Jeddah, Saudi Arabia (approval number 126-1439) and was conducted in accordance with the Saudi Arabia Research Bioethics and Regulations.
All animals used for the purpose of this study received a standard pellet diet and drinking water. Animals were killed by decapitation with rodent guillotine and the descending thoracic aorta was carefully excised and cleaned from fat and connective tissue.
(§1) The vasodilating activities of the methanol extract, fractions, and isolated compounds were studied using the isolated artery technique as previously described (El-Bassossy et al., 2013; El-Bassossy et al., 2016). Briefly, aorta was excised, cleaned of any fats and connective tissue, and cut into 3 mm rings. Each ring was suspended in channels filled with 25 ml of Krebs Henseleit buffer (118 mM NaCl, 4.8 mM KCl, 2.5 mM CaCl2), 1.2 mM MgSO4, 1.2 mM KH2PO4, 25 mM NaHCO3, and 11.1 mM glucose) maintained at 37° C. and continuously aerated with gas consisting of 95% oxygen and 5% carbon dioxide. The buffer solution in the channels was changed every 30 minutes.
(§2) The aortic rings were left to equilibrate for 20 minutes at a resting tension of 1500 mg±50. Primary contraction and relaxation of the aorta were then performed by adding PE (10^−5 M) followed by ACh […]. After the tension was returned to resting state, cumulative concentrations of the total extract, fractions (1-10 μg/ml) or the pure isolated compounds (1-10 μM) were added to the organ bath containing the isolated aortae precontracted with PE (10 μM). The decrease in tension was measured as a measure of vasodilation activities.
(§3) In all experiments, similar PE-precontraction tension was achieved before testing the vasodilating responses.

[2] = tested on: vascular NO production (isolated aorta); assay: NO production from isolated aorta, fluorescence probe DAF-FM; parameters: species or system Wistar rats; settings: 10 μM; DAF-FM 2.5 μM; 37° C.; FIG. 9
Description: Induction of intracellular NO production from the isolated aorta by the total extract, fraction I or the pure isolated compounds was investigated using the fluorescence probe DAF-FM as described in previous work with some modifications (Ghareib et al., 2015). Similar to previous technique, the thoracic aorta was excised, cleaned of fats, and cut into approximately 6 mm pieces. Each piece was added to a separate well in a 96-well black plate, kept in dim light, containing KHB/DAF-FM (2.5 μM) mixture (37° C.) and prepared directly before commencement of the procedure. After 3 minutes, 100 μl were carefully drawn and transferred to the adjacent column of wells after which 10 μM ACh was added to one of the aortic segments and 10 μg/ml of the total extract or fraction I or 10 μM of the pure isolated compounds was added to the other wells. Again after 3 minutes, 100 μl were drawn from the wells with the aortae and transferred to the next column of wells. For the blank, a row was kept without an aorta for each concentration of ACh was treated in the same manner. The fluorescence intensity for the withdrawn volumes (and not the column containing the aortae) was then measured at λex=485 nm and […] with the use of Monochromator SPECTRAMAX® M3 plate reader (Molecular Devices, Sunnyvale, Calif., USA).

[3] = tested on: PE pre-contracted endothelium-denuded aorta; assay: vasodilating activity in endothelium-denuded PE-precontracted isolated aorta; parameters: species or system Wistar rats; settings: isolated compounds, 10 μM, p<0.05; FIG. 7-8
Description: as §1, §2
In another set of experiments, endothelium was mechanically denuded in order to investigate its role in the vasodilation effect.
as §3

[4] = ROS scavenging ability, DPPH; settings: DPPH 240 μM; 1, 3 and 10 μM; 10-minute reaction; FIG. 10
Description: The reactive oxygen species (ROS) scavenging ability of fraction I or pure isolated compounds was studied as previously reported with some modifications (Tarkhan et al., 2019). In a 96-well clear plate, the fraction I (1-10 μg/ml) or pure isolated compounds (1-10 μM) in methanol was added to DPPH solution (240 μM) in methanol/tris (1:1 v/v). For the time control (C), methanol was used instead of the fraction or compounds. DPPH was prepared immediately before addition to the plate. The absorbance was measured at 520 nm every minute for 10 minutes with the use of Monochromator SPECTRAMAX® M3 plate reader (Molecular Devices, Sunnyvale, Calif., USA).

Molecule	vasodilation of PE precontracted isolated aortae [1]	vascular NO production (DAF-FM fluorescence) compared with control [2]	vasodilation of PE-precontracted isolated aortae ([1]; maximal extent reached, 1-10 μM, FIG. 7B) [%]	effect of endothelial denudation on vasodilation activity [3]	DPPH free radical scavenging activity [4]
CCC(C)C(=O)c1c(O)c(C)c(OCC=C(C)C)c(C(=O)CC(C)C)c1O (stereo not shown) [compound 1, 3,5-dihydroxy-6-methyl-1-[(3-methylbut-2-en-1-yl)oxy]-2-(3-methylbutyryl)-4-(2-methylbutyryl)-benzene]	concentration dependent vasodilation				
CC(C)=CCC(=O)C1CC23CC(Cl)C(C)(C)OC2(C(O)C=C(C)C)C(=O)C(C(=O)C(C)C)(C3=O)C1(C)C (stereo not shown) [compound 2, 3-chloro-9a-(1-hydroxy-3-methylbut-2-en-1-yl)-8-isobutyryl-2,2,7,7-tetramethyl-6-(4-methylpent-3-enoyl)hexahydro-2H-4a,8-methanocyclohepta[b]pyran-9,10(9aH)-dione]	reached statistical significance at concentrations of 3 and 10 μM	induced NO production that reached statistical significance	50	completely blocked the vasodilation activity	
CC[C@H](CC[C@@H](C)[C@H]1CC[C@H]2[C@@H]3CC=C4C[C@@H](O)CC[C@]4(C)[C@H]3CC[C@]12C)C(C)C [compound 3, β-sitosterol]	concentration dependent vasodilation	induced NO production that reached statistical significance		completely blocked the vasodilation activity	
COc1cc2c(=O)c3ccccc3oc2c(OC)c1OC [compound 5, 2,3,4-trimethoxy xanthone]	concentration dependent vasodilation			blocked the vasodilation activity	significant free radical scavenging activity
euxanthone [compound 4]	did not show any significant vasodilation			did not have any significant effect	
